Results: ChEMBL document CHEMBL3217570, “A class of novel AA-Trp-Trp-OBzl: synthesis, in vitro anti-proliferation, in vivo anti-tumor action, and intercalation mechanism” (Medchemcomm, 2011)
Residues, ends and D or L forms follow the SMILES beside them. *: point of attachment. OBn = c1ccc(CO*)cc1

How the values were obtained:
[1] = tested on: CCRF S-180; experiment: Antiproliferative activity against mouse S180 cells after 48 hrs by MTT assay; type: functional, cell-based; details: CCRF S-180, 48 h
[2] = tested on: K562; experiment: Antiproliferative activity against human K562 cells after 48 hrs by MTT assay; type: functional, cell-based; details: K562, 48 h
[3] = tested on: B16; experiment: Antiproliferative activity against mouse B16 cells after 48 hrs by MTT assay; type: functional, cell-based; details: B16, 48 h
[4] = tested on: H22; experiment: Antiproliferative activity against mouse H22 cells after 48 hrs by MTT assay; type: functional, cell-based; details: H22, 48 h
[5] = tested on: HepG2; experiment: Antiproliferative activity against human HepG2 cells after 48 hrs by MTT assay; type: functional, cell-based; details: HepG2, 48 h
[6] = tested on: CCRF S-180; experiment: Antitumor activity against mouse S180 cells allografted in ICR mouse assessed as tumor growth inhibition at 8.9 mg/kg, ip qd for 7 days relative to control; type: functional; details: CCRF S-180, ip, 168 h, route intraperitoneal, read-out: TGI
[7] = tested on: Mus musculus; experiment: Toxicity in mouse S180 cells allografted ICR mouse assessed as liver weight at 8.9 mg/kg, ip qd for 7 days relative to control; type: organism-based, CCRF S-180; set-up: dose 8.9 mg/kg, route intraperitoneal; details: in vivo, 168 h
[8] = tested on: Mus musculus; experiment: Toxicity in mouse S180 cells allografted ICR mouse assessed as brain weight at 8.9 mg/kg, ip qd for 7 days relative to control; type: organism-based, CCRF S-180; set-up: dose 8.9 mg/kg, route intraperitoneal; details: in vivo, 168 h
[9] = tested on: Mus musculus; experiment: Toxicity in mouse S180 cells allografted ICR mouse assessed as kidney weight at 8.9 mg/kg, ip qd for 7 days relative to control; type: organism-based, CCRF S-180; set-up: dose 8.9 mg/kg, route intraperitoneal; details: in vivo, 168 h
[10] = tested on: Mus musculus; experiment: Toxicity in mouse S180 cells allografted ICR mouse assessed as spleen index at 8.9 mg/kg, ip qd for 7 days relative to control; type: organism-based, CCRF S-180; set-up: dose 8.9 mg/kg, route intraperitoneal; details: in vivo, 168 h
[11] = tested on: Mus musculus; experiment: Toxicity in mouse S180 cells allografted ICR mouse assessed as increase of body weight at 8.9 mg/kg, ip qd for 7 days relative to control; type: organism-based, CCRF S-180; set-up: dose 8.9 mg/kg, route intraperitoneal; details: in vivo, 168 h
[12] = tested on: Mus musculus; experiment: Neurotoxicity in ICR mouse assessed as neurotoxic behavior up to 500 mg/kg, ip after 7 days; type: toxicity, organism-based; set-up: dose 500 mg/kg, route intraperitoneal; details: in vivo, 168 h
[13] = tested on: Mus musculus; experiment: Toxicity in ICR mouse assessed as mortality up to 500 mg/kg, ip after 7 days; type: organism-based; set-up: dose 500 mg/kg, route intraperitoneal; details: in vivo, 168 h
[14] = tested on: Mus musculus; experiment: Toxicity in ICR mouse assessed as changes in organs up to 500 mg/kg, ip after 7 days by necropsy analysis; type: organism-based; set-up: dose 500 mg/kg, route intraperitoneal; details: in vivo, 168 h
[15] = Acute toxicity in ip dosed ICR mouse after 7 days; type: organism-based; details: in vivo

Compound	IC50 [1]	IC50 [2]	IC50 [3]	IC50 [4]	IC50 [5]	inhibition in vivo at 8.9 mg/kg [6]	Activity [7]	Activity [8]	Activity [9]	Activity [10]	Activity [11]	Activity [12]	Activity [13]	Activity [14]	LD50 at 168 h [15]
C[C@H](N)C(=O)N[C@@H](Cc1c[nH]c2ccccc12)C(=O)N[C@@H](Cc1c[nH]c2ccccc12)C(=O)OCc1ccccc1 (H-Ala-Trp-Trp-OBn)	72.7 µM	116 µM	132 µM	84.9 µM	49.9 µM	-11.4%	Non-toxic	Non-toxic	Non-toxic	Non-toxic	Toxic				
N=C(N)NCCC[C@H](N)C(=O)N[C@@H](Cc1c[nH]c2ccccc12)C(=O)N[C@@H](Cc1c[nH]c2ccccc12)C(=O)OCc1ccccc1 (H-Arg-Trp-Trp-OBn)	29.4 µM	27.2 µM	37.4 µM	27.5 µM	38.1 µM	45.1%	Non-toxic	Non-toxic	Non-toxic	Non-toxic	Toxic	Non-toxic	Non-toxic	Non-toxic	> 500 mg/kg
N[C@@H](CC(=O)O)C(=O)N[C@@H](Cc1c[nH]c2ccccc12)C(=O)N[C@@H](Cc1c[nH]c2ccccc12)C(=O)OCc1ccccc1 (H-Asp-Trp-Trp-OBn)	164 µM	170 µM	157 µM	107 µM	122 µM	-8.85%	Non-toxic	Non-toxic	Non-toxic	Non-toxic	Toxic				
N[C@@H](CS)C(=O)N[C@@H](Cc1c[nH]c2ccccc12)C(=O)N[C@@H](Cc1c[nH]c2ccccc12)C(=O)OCc1ccccc1 (H-Cys-Trp-Trp-OBn)	26.2 µM	20.6 µM	32.8 µM	24.7 µM	35 µM	48.4%	Non-toxic	Non-toxic	Non-toxic	Non-toxic	Toxic	Non-toxic	Non-toxic	Non-toxic	> 500 mg/kg
NC(=O)CC[C@H](N)C(=O)N[C@@H](Cc1c[nH]c2ccccc12)C(=O)N[C@@H](Cc1c[nH]c2ccccc12)C(=O)OCc1ccccc1 (H-Gln-Trp-Trp-OBn)	27.6 µM	24.6 µM	31.8 µM	25.1 µM	26.2 µM	43%	Non-toxic	Non-toxic	Non-toxic	Non-toxic	Toxic	Non-toxic	Non-toxic	Non-toxic	> 500 mg/kg
N[C@@H](CCC(=O)O)C(=O)N[C@@H](Cc1c[nH]c2ccccc12)C(=O)N[C@@H](Cc1c[nH]c2ccccc12)C(=O)OCc1ccccc1 (H-Glu-Trp-Trp-OBn)	16.6 µM	14.3 µM	21.4 µM	14.7 µM	22.3 µM	78.8%	Non-toxic	Non-toxic	Non-toxic	Non-toxic	Toxic	Non-toxic	Non-toxic	Non-toxic	> 500 mg/kg
NCC(=O)N[C@@H](Cc1c[nH]c2ccccc12)C(=O)N[C@@H](Cc1c[nH]c2ccccc12)C(=O)OCc1ccccc1 (H-Gly-Trp-Trp-OBn)	79.9 µM	88.6 µM	159 µM	51.1 µM	58.3 µM	-6.51%	Non-toxic	Non-toxic	Non-toxic	Non-toxic	Toxic				
N[C@@H](Cc1cnc[nH]1)C(=O)N[C@@H](Cc1c[nH]c2ccccc12)C(=O)N[C@@H](Cc1c[nH]c2ccccc12)C(=O)OCc1ccccc1 (H-His-Trp-Trp-OBn)	83.3 µM	101 µM	100 µM	95.5 µM	97.2 µM	11.9%	Non-toxic	Non-toxic	Non-toxic	Non-toxic	Toxic				
